{"source": "patent US7285618B1", "about": "“Polypeptides having neutrophil stimulating activity” (Japan Tobacco Inc., priority 2000, dated 2007)", "key": {"HL60 cells [1]": {"tested_on": "HL60 cells", "format": "cell-based, human"}, "[2]": {"tested_on": "differentiated HL60 cells", "format": "cell-based, human", "conditions": "for secretion of β-HA upon stimulation after PTX treatment: cells treated with 50 ng/ml PTX for 16 hours; for Percentage of maximum secretion activity (%/control): control = β-HA released upon 10 μM fMLP; for β-HA secretion from differentiated HL60 cells (%/total): total = β-HA released with 0.05% Triton X-100", "experimental": "a. Cultivation of HL60 Cells and Induction to the Differentiated Neutrophil-Like Cells For cultivation, heat-inactivated FCS (final concentration; 10%), streptomycin (final concentration; 100 mg/l), penicillin G (final concentration of 10^5 units/l) and RPMI-1640 culture solution containing 10 mM Hepes (pH 7.4) were used. Cells were cultivated at a cell density of 2×10^5-1.5×10^6 cells/ml in a plastic flask (80 cm^2, 260 ml, Nunc) at 37° C. under stationary conditions with a 5% of CO2 concentration and a 100% of humidity. […] c. […] Measuring β-HA Enzyme Activity The amount of β-HA secreted into the reaction supernatant was determined by measuring the absorbance at 415 nm of p-nitrophenol that was generated by an enzymatic reaction involving p-nitrophenyl N-acetyl-β-D-glucosaminide as a substrate. To be specific, 90 μl of the reaction supernatant was transferred to a 96-well Immuno plate (Nunc) and 60 μl of a substrate solution (10 mM p-nitrophenyl N-acetyl-β-D-glucosaminide/40 mM citrate, 70 mM Na2HPO4, pH 4.5) was added to initiate an enzymatic reaction. Following a 1-hr reaction at 37° C., 100 μl of a reaction quencher (400 mM glycine, pH 10.7) was added to stop the reaction and the absorbance at 415 nm was measured. As a control, cells were treated with Triton X-100 at a final concentration of 0.05% and the amount of β-HA in the supernatant was measured. As another control, the amount of β-HA secreted from cells upon stimulation with fMLP at a final concentration of 10 μM was measured."}, "fMLP receptor": {"target": "T1, fMLP receptor (Homo sapiens, UniProt P21462)", "T1 construct": "fMLP receptors are expressed on the surfaces of the cells as they differentiate into neutrophil-like cells; endogenous in cells; host or cells: HL60 cells differentiated with db-cAMP (whole cells)", "T1 sequence (P21462 1-350)": "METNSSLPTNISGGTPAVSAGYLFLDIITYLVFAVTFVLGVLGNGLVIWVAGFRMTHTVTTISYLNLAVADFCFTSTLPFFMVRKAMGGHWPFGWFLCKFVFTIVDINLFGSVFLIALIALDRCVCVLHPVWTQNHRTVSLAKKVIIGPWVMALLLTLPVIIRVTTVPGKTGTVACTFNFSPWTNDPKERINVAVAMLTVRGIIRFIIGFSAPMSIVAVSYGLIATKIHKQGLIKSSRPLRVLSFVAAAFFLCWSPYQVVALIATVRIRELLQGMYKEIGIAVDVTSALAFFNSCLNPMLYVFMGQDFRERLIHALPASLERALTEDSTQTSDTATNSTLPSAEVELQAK", "test": "[3H]fMLP binding to the fMLP receptor on differentiated HL60 cells", "conditions": "[3H]fMLP 50 nM, 22° C., 60 minutes; COSP-1 up to 10 μM", "experimental": "The binding study of COSP-1 to the fMLP receptor was done using the differentiated HL60 cells. The differentiated HL60 cells were washed twice with HBHS. Then, the cells were suspended at 3.1×10^7 cells/ml and this suspension was transferred to tubes (2.5×10^6 cells/80 μl) and incubated at 22° C. for 10 minutes. Subsequently, various concentrations of COSP-1 or fMLP (10 μl) were added and incubated at 22° C. for 5 minutes. Thereafter, 10 μl of [^3H]fMLP (final concentration at 50 nM) was added and reaction was performed at 22° C. for 60 minutes. By adding 500 μl of ice-cooled PBS-BSA (10 mM phosphate, 120 mM NaCl, 0.5% BSA), the reaction was stopped. The treated cell suspension was then passed through a glass-fiber filter (Whatman GF/C) and the filter was washed three times with ice-cooled PBS-BSA (2 ml) to remove [^3H]fMLP not bound to the cells. The glass-fiber filter was dried and a scintillant was added to a solution for radioactivity measurement.\nThe measurements of binding of the fMLP to the fMLP receptors were expressed as the percentage (%/total) for a maximum binding which was shown as the radioactivity of [^3H]fMLP having specific binding to the receptors in the absence of an unlabelled ligand."}, "G protein (Gi)": {"tested_on": "G protein (Gi)", "test": "GTPase activity of purified Gi reconstituted on a phospholipid membrane", "format": "biochemical, rabbit", "conditions": "3 μM", "from_the_text": "G protein (Gi), which is present in neutrophils and involved in […] of fMLP, was extracted from the rabbit liver and purified (J. Biol. Chem. 267, 16237-16243, 1992). The purified Gi was reconstituted on a phospholipid membrane, and it was challenged by fCyt b (1-15) or COSP-1. We measured GTPase activity for these stimulations."}, "[3]": {"tested_on": "differentiated HL60 cells", "test": "LDH leakage from HL60 cells", "quoted_text": "(§1) The differentiated HL60 cells and human leukocyte cells were washed three times with ice-cooled 0.1% BSA containing Hepes buffered Hank's solution (HBHS; 10 mM Hepes, 136.9 mM NaCl, 5.4 mM KCl, 1.2 mM CaCl2, 0.44 mM KH2PO4, 0.49 mM MgCl2, 0.41 mM MgSO4, 0.34 mM Na2HPO4, 5.5 mM glucose, 4.2 mM NaHCO3, pH 7.4). A cell suspension was prepared for each cell type at 5.5×10^6 cells/ml. Cytochalasin B and DNase I were then added to each cell suspension at a final concentration of 5 μg/ml. Ninety μl of each cell suspension was then transferred to an ice-cooled tube (5.0×10^5 cells/tube) and incubated at 37° C. for 10 minute. To each tube, either one of the fractions of polypeptide (or extract) in solution (10 μl) was added and incubated at 37° C. for 10 minutes to stimulate the cells. Immediately after the treatment, 200 μl of ice-cooled reaction quenching buffer (25 mM Tris, 123 mM NaCl, 2.7 mM KCl, pH 7.4) was added to the cell suspensions to stop the stimulation. Thereafter, the tubes were spun down at 4° C. for 60 seconds to precipitate the cell pellets and the β-HA activity and the lactate dehydrogenase (LDH) activity in the supernatant were measured.\n(§2) The amount of LDH secreted into the reaction mixture was determined by measuring the absorbance (340 nm) of NADH generated by reduction of that NAD involves dehydrogenation of lactate. Reaction was initiated by adding a 400 μl of a substrate-buffer solution (125 mM 2-amino-2-methyl-1-propanol, 125 mM lithium lactate, 6.25 mM NAD, pH 9.5) to a 100 μl of the reaction supernatant. Following a 1-hr incubation at 37° C., the mixture was quenched in ice water to stop the reaction and the absorbance at 340 nm was measured.\n(§3) The LDH enzyme activity secreted in the reaction mixture was expressed as the percentage of the total enzyme activity in cells (%/total) which was the enzyme activity of LDH released upon disruption of the cells with 0.05% Triton X-100."}, "HL60 cells [4]": {"tested_on": "HL60 cells", "format": "cell-based, human", "experimental": "Cells were cultivated following the method as described in Example 4, except that the RPMI-1640 medium containing contained 15% of FCS, and that in order to differentiate the HL60 cells into neutrophil-like cells, a cell suspension was prepared such that the cell density in the flask would be 0.5×10^6 cells/ml at the time of addition of db-cAMP (final concentration, 0.5 mM). The β-HA secretion promoting activities of COSP-1 and fMLP were measured 24, 48 and 72 hours after the differentiation.", "remark": "listed apart in the source"}, "[5]": {"tested_on": "monocyte and lymphocyte mixed cells", "test": "β-HA secretion from monocyte and lymphocyte mixed cells", "format": "cell-based, human"}, "[6]": {"tested_on": "differentiated HL60 cells", "quoted_text": "as §1, §2, §3"}}, "note": "Like-named read-outs stand apart in the source and are kept apart here. Where no end group is shown, it is not given here.", "data": [{"compound": "LSFLIPAGWVLSHLDHYKRSSAA-OH [COSP-1]", "values": [{"measurement": "β-HA secretion to the undifferentiated HL60 cells", "setting": "HL60 cells [1]", "value": "Neither COSP-1 nor fMLP caused the β-HA secretion"}, {"measurement": "promoted secretion of β-HA under Boc-MLF treatment", "setting": "[2]; Boc-MLF treatment, data not shown", "value": "significantly suppressed"}, {"measurement": "secretion of β-HA upon stimulation after PTX treatment", "setting": "[2]", "value": "almost completely inhibited"}, {"measurement": "Percentage of maximum secretion activity (%/control)", "setting": "[2]", "value": "93.6 ± 2.8", "unit": "%/control"}, {"measurement": "β-HA secretion from differentiated HL60 cells (%/total)", "setting": "[2]", "value": 63.1, "unit": "%/total"}, {"measurement": "inhibition of the specific binding between [3H]fMLP and fMLP receptors", "setting": "fMLP receptor", "value": "not by COSP-1 even when its final concentration was reacted to 10 μM"}, {"measurement": "stimulation of the GTPase activity of Gi", "setting": "G protein (Gi)", "value": "about 6 fold"}, {"measurement": "LDH leakage from the HL60 cells", "setting": "[3]; Example 6", "value": "neither of COSP-1 and fMLP caused LDH leakage"}, {"measurement": "LDH leakage out of the cells", "setting": "[3]; differentiated HL60 cells, Example 4", "value": "no LDH was found to leak out"}, {"measurement": "EC50", "setting": "HL60 cells [4]; 24 h", "value": 1200, "unit": "nM"}, {"measurement": "EC50", "setting": "HL60 cells [4]; 48 h", "value": 450, "unit": "nM"}, {"measurement": "EC50", "setting": "HL60 cells [4]; 72 h", "value": 270, "unit": "nM"}, {"measurement": "Max. (%/total), maximum secretion on average", "setting": "HL60 cells [4]; Differentiation 24 hr", "value": 15.6, "unit": "%/total"}, {"measurement": "Max. (%/total), maximum secretion on average", "setting": "HL60 cells [4]; Differentiation 48 hr", "value": 35.7, "unit": "%/total"}, {"measurement": "Max. (%/total), maximum secretion on average", "setting": "HL60 cells [4]; Differentiation 72 hr", "value": 45.3, "unit": "%/total"}]}, {"compound": "CSCC[C@H](NC=O)C(=O)N[C@@H](CC(C)C)C(=O)N[C@@H](Cc1ccccc1)C(=O)O", "note": "[fMLP, formyl methionyl-leucyl-phenylalanine, reference compound]", "values": [{"measurement": "β-HA secretion to the undifferentiated HL60 cells", "setting": "HL60 cells [1]", "value": "Neither COSP-1 nor fMLP caused the β-HA secretion"}, {"measurement": "secretion of β-HA upon stimulation after PTX treatment", "setting": "[2]", "value": "almost completely inhibited"}, {"measurement": "Percentage of maximum secretion activity (%/control)", "setting": "[2]", "value": 100, "unit": "%/control"}, {"measurement": "β-HA secretion from differentiated HL60 cells (%/total)", "setting": "[2]", "value": 67.4, "unit": "%/total"}, {"measurement": "β-HA secretion from monocyte and lymphocyte mixed cells (%/total)", "setting": "[5]", "value": "21.8 ± 5.3", "unit": "%/total"}, {"measurement": "secretion of β-HA in the monocyte and lymphocyte mixed cells", "setting": "[5]; stimulation with 10 μM", "value": "21.8±5.3", "unit": "%"}, {"measurement": "LDH leakage from the HL60 cells", "setting": "[6]", "value": "neither of COSP-1 and fMLP caused LDH leakage"}, {"measurement": "EC50", "setting": "HL60 cells [4]; 24 h", "value": 110, "unit": "nM"}, {"measurement": "EC50", "setting": "HL60 cells [4]; 48 h", "value": 22, "unit": "nM"}, {"measurement": "EC50", "setting": "HL60 cells [4]; 72 h", "value": 9.3, "unit": "nM"}, {"measurement": "Max. (%/total), maximum secretion on average", "setting": "HL60 cells [4]; Differentiation 24 hr", "value": 17.4, "unit": "%/total"}, {"measurement": "Max. (%/total), maximum secretion on average", "setting": "HL60 cells [4]; Differentiation 48 hr", "value": 40.6, "unit": "%/total"}, {"measurement": "Max. (%/total), maximum secretion on average", "setting": "HL60 cells [4]; Differentiation 72 hr", "value": 48.4, "unit": "%/total"}]}]}
